Measurements published in paper PMC9448386, “Discovery of novel conjugates of quinoline and thiazolidinone urea as potential anti-colorectal cancer agent” (Journal of Enzyme Inhibition and Medicinal Chemistry, 2022).

How the values were obtained:
HT-29 cells = test: MTT assay, cytotoxic activity against HT-29; assay type: cell-based, human; conditions: SD shown
Text: (§1) Taking lead compound BC2021-104511-15i, Fruquintinib and Regorafenib as positive controls, the cytotoxic activity against HT-29, HCT-116, COLO-205 and FHC cell lines by MTT assay. Detailed operation could be found in our previous study.

COLO 205 cells = test: MTT assay, cytotoxic activity against COLO 205; assay type: cell-based; conditions: MTT, average of three separate determinations, SD shown
Text: as §1

HGFR = HGFR (Homo sapiens, UniProt P08581); test: Mobility shift assay, HGFR kinase inhibition; assay type: biochemical; conditions: mean of two independent experiments
Experimental: (§2) Kinase inhibitory activity against HGFR, MST1R, ABL, PDGFRβ, AXL, FLT3, RET, c-Src, and VEGFR-2 was evaluated by the mobility shift assay. Detailed operation could be found in our previous research.

MST1R = MST1R (Homo sapiens, UniProt Q04912); test: Mobility shift assay, MST1R kinase inhibition; assay type: biochemical; conditions: mean of two independent experiments
Experimental: as §2

HCT-116 cells = test: MTT assay, cytotoxic activity against HCT-116; assay type: cell-based; conditions: Homo sapiens, average of three separate determinations, SD shown
Text: as §1

Ron (MST1R) = conditions: Figure 1; cited from earlier work
[1] = MTT assay, cytotoxicity against FHC cells; assay type: cell-based; conditions: FHC cells (normal colorectal mucosa epithelial cells); human normal colorectal mucosa epithelial cells; average of three separate determinations
Experimental: In order to investigate the cell selectivity index, the cytotoxicity of potent compounds against human normal colorectal mucosa epithelial cell FHC cells was determined.
as §1

ABL = ABL (Homo sapiens, UniProt P00519); test: Mobility shift assay, ABL; assay type: biochemical; conditions: mean of two independent experiments, SD shown
Experimental: as §2

RET = RET (Homo sapiens, UniProt P07949); test: Mobility shift assay, RET; assay type: biochemical; conditions: mean of two independent experiments, SD shown
Experimental: as §2

AXL = biological target: T1, AXL (Homo sapiens, UniProt P30530); test: Mobility shift assay, AXL; assay type: biochemical; conditions: mean of two independent experiments, SD shown
T1 sequence (P30530 26-894): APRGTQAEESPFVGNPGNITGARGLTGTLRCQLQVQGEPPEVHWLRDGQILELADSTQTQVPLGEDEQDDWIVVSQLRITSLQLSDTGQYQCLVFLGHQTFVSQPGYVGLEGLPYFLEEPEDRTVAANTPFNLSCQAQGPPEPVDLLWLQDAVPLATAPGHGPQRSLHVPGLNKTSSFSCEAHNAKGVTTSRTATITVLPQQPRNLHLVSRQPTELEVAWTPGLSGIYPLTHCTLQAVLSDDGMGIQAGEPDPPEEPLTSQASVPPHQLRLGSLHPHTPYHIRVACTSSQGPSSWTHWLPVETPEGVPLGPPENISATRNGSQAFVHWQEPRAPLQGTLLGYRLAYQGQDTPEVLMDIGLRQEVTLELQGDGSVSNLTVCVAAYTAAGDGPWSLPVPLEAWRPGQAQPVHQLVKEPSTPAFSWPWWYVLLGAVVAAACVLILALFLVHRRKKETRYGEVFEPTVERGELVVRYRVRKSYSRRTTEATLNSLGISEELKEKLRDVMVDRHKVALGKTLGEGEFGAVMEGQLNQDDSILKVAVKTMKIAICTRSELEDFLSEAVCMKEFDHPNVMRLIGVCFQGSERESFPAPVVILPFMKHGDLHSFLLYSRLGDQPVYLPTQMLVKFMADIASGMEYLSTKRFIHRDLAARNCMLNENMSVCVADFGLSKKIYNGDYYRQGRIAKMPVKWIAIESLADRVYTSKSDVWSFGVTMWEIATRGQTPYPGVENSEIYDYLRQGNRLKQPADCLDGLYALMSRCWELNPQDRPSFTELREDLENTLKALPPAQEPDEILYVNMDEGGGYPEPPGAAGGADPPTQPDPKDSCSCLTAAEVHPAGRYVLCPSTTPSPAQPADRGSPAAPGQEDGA
Experimental: as §2

FLT3 = biological target: T2, FLT3 (Homo sapiens, UniProt P36888); test: Mobility shift assay, FLT3; assay type: biochemical; conditions: mean of two independent experiments, SD shown
T2 sequence (P36888 27-993): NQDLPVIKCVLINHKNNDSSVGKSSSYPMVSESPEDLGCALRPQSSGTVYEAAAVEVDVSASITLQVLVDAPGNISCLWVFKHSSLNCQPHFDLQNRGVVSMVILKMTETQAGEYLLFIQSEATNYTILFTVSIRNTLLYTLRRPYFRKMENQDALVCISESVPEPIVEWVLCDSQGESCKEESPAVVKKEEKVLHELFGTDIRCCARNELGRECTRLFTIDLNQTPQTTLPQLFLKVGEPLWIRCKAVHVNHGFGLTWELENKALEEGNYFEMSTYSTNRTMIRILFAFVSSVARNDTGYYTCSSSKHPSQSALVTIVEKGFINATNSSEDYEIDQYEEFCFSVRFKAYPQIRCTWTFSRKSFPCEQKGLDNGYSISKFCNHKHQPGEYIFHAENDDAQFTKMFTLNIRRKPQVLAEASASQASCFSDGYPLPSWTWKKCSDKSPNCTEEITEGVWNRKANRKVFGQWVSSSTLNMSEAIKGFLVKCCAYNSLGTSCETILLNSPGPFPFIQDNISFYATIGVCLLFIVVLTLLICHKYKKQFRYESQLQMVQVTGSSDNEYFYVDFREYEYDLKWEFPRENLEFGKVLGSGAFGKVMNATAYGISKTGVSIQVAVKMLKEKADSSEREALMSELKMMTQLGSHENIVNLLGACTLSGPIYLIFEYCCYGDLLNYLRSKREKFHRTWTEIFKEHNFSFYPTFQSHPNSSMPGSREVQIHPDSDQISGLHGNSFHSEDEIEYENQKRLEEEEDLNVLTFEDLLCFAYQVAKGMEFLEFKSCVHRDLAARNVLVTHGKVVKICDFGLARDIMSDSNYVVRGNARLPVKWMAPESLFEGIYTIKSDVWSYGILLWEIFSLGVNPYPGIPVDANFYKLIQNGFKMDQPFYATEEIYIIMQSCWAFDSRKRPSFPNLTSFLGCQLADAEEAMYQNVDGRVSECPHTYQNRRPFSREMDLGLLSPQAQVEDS
Experimental: as §2

PDGFRβ = PDGFRβ (Homo sapiens, UniProt P09619); test: Mobility shift assay, PDGFRβ; assay type: biochemical; conditions: mean of two independent experiments, SD shown
Experimental: as §2

VEGFR-2 = VEGFR-2 (Homo sapiens, UniProt P35968); test: Mobility shift assay, VEGFR-2; assay type: biochemical; conditions: mean of two independent experiments, SD shown
Experimental: as §2

c-Src = c-Src (Homo sapiens, UniProt P12931); test: Mobility shift assay, c-Src; assay type: biochemical; conditions: mean of two independent experiments, SD shown
Experimental: as §2

[2] = Homo sapiens, HT-29, average of three separate determinations

Chain of HGFR (P08581 25-1390): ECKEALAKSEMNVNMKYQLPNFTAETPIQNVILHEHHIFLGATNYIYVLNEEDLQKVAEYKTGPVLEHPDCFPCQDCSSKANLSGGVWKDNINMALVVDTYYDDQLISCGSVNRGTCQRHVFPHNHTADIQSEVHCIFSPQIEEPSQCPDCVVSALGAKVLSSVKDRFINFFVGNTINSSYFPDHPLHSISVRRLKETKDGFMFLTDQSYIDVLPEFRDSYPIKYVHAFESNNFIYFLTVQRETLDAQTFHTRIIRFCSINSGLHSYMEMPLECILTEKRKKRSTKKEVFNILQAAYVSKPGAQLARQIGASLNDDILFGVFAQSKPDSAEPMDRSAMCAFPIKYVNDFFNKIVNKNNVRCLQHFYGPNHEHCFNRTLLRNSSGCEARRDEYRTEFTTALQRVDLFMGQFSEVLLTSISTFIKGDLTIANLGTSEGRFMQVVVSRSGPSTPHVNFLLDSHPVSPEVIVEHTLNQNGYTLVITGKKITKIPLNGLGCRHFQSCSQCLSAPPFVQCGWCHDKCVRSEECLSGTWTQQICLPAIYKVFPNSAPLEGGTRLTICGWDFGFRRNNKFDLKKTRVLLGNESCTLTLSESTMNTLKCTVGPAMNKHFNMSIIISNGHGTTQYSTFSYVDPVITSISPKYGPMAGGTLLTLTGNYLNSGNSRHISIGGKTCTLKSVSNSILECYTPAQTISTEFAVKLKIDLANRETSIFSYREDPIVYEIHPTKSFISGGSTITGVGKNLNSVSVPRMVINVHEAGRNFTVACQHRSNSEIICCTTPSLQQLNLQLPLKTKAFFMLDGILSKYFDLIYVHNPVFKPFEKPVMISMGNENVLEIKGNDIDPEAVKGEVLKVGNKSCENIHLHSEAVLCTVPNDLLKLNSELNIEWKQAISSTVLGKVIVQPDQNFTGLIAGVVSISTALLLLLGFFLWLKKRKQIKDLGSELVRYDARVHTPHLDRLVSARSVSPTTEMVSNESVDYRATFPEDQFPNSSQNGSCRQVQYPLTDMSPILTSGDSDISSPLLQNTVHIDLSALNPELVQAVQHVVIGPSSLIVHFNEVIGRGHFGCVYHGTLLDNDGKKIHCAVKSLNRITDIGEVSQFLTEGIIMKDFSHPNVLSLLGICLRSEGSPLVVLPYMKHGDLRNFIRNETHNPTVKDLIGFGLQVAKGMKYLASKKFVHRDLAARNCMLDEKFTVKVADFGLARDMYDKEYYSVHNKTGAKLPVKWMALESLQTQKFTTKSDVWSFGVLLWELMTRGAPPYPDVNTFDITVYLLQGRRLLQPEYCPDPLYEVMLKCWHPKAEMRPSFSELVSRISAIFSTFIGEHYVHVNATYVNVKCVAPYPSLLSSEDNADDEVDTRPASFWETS
Chain of MST1R (Q04912 25-1400): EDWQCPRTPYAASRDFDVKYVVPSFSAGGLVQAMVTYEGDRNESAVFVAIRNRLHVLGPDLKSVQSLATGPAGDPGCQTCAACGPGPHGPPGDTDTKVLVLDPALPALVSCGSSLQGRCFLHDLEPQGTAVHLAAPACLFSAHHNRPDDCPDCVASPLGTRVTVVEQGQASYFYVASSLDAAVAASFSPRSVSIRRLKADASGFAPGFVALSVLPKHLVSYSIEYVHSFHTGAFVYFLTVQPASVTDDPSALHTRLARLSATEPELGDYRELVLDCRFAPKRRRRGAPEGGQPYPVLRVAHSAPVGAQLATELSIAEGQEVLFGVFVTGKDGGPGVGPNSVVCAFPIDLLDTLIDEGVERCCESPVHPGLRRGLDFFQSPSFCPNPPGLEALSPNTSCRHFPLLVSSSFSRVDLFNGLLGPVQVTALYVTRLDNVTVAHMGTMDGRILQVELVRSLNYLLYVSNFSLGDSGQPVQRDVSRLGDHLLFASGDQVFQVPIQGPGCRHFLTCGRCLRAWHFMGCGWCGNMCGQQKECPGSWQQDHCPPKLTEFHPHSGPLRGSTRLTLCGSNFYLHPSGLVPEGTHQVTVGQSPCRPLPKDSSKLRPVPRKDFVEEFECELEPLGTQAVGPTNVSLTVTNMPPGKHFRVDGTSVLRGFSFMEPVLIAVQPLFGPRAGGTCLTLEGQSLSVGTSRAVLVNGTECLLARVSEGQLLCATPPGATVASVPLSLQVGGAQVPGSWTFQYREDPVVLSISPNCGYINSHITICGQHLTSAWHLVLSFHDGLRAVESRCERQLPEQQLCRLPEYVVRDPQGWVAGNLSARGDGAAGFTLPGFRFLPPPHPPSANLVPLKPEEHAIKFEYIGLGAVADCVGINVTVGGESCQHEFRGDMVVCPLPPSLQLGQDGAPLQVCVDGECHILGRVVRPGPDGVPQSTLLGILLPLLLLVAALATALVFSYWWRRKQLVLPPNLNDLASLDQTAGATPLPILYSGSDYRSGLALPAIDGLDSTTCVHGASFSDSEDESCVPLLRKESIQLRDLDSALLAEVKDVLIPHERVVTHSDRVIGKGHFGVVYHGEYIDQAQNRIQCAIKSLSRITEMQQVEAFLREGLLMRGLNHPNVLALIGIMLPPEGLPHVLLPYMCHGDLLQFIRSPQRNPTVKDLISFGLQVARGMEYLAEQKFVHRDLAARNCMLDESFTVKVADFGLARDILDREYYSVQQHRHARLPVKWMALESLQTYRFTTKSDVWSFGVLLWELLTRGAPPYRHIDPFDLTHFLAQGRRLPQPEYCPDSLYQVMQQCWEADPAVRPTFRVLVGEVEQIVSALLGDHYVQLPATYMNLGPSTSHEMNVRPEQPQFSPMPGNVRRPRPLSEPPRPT
Chain of c-Src (P12931 whole entry): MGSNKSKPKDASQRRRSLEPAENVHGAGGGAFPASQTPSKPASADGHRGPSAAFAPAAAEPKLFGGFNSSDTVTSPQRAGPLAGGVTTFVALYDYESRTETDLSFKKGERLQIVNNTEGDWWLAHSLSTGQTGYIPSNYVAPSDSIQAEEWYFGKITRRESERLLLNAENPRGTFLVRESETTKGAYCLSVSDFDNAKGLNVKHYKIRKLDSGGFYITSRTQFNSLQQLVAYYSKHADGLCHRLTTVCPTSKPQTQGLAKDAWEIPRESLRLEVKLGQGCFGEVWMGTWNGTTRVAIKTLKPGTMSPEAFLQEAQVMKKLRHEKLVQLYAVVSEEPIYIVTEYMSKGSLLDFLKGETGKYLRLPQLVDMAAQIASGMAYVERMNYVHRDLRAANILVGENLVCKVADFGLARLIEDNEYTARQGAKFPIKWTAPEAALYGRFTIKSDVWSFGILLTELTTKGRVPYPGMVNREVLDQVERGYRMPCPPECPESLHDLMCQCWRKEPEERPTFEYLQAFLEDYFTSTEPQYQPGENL
Chain of VEGFR-2 (P35968 20-1356): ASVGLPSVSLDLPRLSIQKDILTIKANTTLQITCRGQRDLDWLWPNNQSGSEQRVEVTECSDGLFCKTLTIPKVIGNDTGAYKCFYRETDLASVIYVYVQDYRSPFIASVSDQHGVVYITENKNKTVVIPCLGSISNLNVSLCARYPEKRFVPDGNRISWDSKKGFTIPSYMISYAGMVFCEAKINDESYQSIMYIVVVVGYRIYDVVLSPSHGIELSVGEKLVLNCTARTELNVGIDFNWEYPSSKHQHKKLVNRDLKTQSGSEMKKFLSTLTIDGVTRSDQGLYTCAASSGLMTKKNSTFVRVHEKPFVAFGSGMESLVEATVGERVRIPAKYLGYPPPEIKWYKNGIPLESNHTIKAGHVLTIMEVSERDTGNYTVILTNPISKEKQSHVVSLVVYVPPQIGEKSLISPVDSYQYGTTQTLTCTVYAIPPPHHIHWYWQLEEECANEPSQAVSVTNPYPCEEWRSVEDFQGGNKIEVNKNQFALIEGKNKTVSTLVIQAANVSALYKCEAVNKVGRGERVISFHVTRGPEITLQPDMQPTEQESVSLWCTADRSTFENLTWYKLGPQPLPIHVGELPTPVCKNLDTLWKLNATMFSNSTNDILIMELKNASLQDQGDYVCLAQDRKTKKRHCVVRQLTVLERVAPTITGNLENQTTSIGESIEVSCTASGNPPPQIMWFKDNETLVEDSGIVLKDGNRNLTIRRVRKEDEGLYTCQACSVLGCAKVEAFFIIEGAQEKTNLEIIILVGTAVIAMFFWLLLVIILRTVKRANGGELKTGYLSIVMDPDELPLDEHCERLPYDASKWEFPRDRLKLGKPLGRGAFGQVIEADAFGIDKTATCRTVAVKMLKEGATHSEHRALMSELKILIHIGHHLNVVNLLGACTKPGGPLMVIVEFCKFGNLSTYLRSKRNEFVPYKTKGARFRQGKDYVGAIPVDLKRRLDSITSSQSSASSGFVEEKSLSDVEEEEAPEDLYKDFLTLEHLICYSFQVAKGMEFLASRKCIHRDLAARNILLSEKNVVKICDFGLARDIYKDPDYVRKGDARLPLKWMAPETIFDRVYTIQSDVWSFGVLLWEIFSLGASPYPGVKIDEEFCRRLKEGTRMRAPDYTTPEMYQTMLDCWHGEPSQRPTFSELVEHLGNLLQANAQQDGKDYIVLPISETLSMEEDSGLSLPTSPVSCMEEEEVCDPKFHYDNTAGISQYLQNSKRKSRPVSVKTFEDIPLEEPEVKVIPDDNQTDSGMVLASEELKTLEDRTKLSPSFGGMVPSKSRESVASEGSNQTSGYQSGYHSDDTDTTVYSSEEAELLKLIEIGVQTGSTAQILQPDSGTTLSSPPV

| Compound | IC50 (HGFR) [nM] | IC50 (MST1R) [nM] | IC50 (HT-29 cells; [2]) [nM] | IC50 (HCT-116 cells) [nM] | IC50 (COLO 205 cells; Homo sapiens, COLO 205) [nM] | IC50 [1] [nM] | further results |
| --- | --- | --- | --- | --- | --- | --- | --- |
| 2–(4-((4–(4-(3–(2-(2,6-Difluorophenyl)-4-oxotetrahydrothiophen-3-yl)ureido)-2-fluorophenoxy)-6-methoxyquinazolin-7-yl)oxy)piperidin-1-yl)acetamide [Compound 19] | – | – | – | – | – | – | IC50 (HT-29 cells; average of three separate determinations): 8600 ± 670 nM; IC50 (COLO 205 cells): 5300 ± 470 nM |
| CCN(CC)C(=O)N1CCC(Oc2cc3nccc(Oc4ccc(NC(=O)NN5C(=O)CSC5c5c(F)cccc5F)cc4F)c3cc2OC)CC1 (stereo not drawn) [BC2021-104511-15i, 4-((4-(4-(3-(2-(2,6-difluorophenyl)-4-oxothiazolidin-3-yl)ureido)-2-fluorophenoxy)-6-methoxyquinolin-7-yl)oxy)-N,N-diethylpiperidine-1-carboxamide, reference compound] | 270 | 110 | 790 ± 58 | 4800 ± 440 | 720 ± 65 | – | – |
| CCOc1ccn(-c2ccc(F)cc2)c(=O)c1C(=O)Nc1ccc(Oc2ccnc(N)c2Cl)c(F)c1 [BMS-777607] | – | – | – | – | – | – | IC50 (Ron (MST1R)): 1.8 nM |
| COCC(=O)N1CCC(Oc2cc3nccc(Oc4ccc(NC(=O)NN5C(=O)CSC5c5c(F)cccc5F)cc4F)c3cc2OC)CC1 (stereo not drawn) [Compound 10b, 1–(2-(2,6-Difluorophenyl)-4-oxothiazolidin-3-yl)-3–(3-fluoro-4-((6-methoxy-7-((1–(2-methoxyacetyl)piperidin-4-yl)oxy)quinolin-4-yl)oxy)phenyl)urea] | 180 | 85 | 3000 ± 240 | 3700 ± 340 | 310 ± 21 | > 10000 | IC50 (ABL): 3280 ± 260 nM; IC50 (RET): 1520 ± 140 nM; IC50 (AXL): 1500 ± 150 nM; IC50 (FLT3): > 10000 nM; IC50 (PDGFRβ): 1200 ± 95 nM; IC50 (VEGFR-2): 2360 ± 180 nM; IC50 (c-Src): 690 ± 57 nM |
| CNC(=O)CN1CCC(Oc2cc3nccc(Oc4ccc(NC(=O)NN5C(=O)CSC5c5c(F)cccc5F)cc4F)c3cc2OC)CC1 (stereo not drawn) [Compound 10c, 2–(4-((4–(4-(3–(2-(2,6-Difluorophenyl)-4-oxothiazolidin-3-yl)ureido)-2-fluorophenoxy)-6-methoxyquinolin-7-yl)oxy)piperidin-1-yl)-N-methylacetamide] | 140 | 72 | 4100 ± 270 | 5900 ± 530 | 440 ± 38 | – | – |
| COc1cc2c(Oc3ccc(NC(=O)NN4C(=O)CSC4c4c(F)cccc4F)cc3F)ccnc2cc1OC1CCN(C(=O)CN(C)C)CC1 (stereo not drawn) [Compound 10d, 1–(2-(2,6-Difluorophenyl)-4-oxothiazolidin-3-yl)-3–(4-((7-((1-(dimethylglycyl)piperidin-4-yl)oxy)-6-methoxyquinolin-4-yl)oxy)-3-fluorophenyl)urea] | 900 | 440 | 2900 ± 190 | 2400 ± 260 | 4900 ± 380 | > 10000 | – |
| COc1cc2c(Oc3ccc(NC(=O)NN4C(=O)CSC4c4c(F)cccc4F)cc3F)ccnc2cc1OC1CCN(CC(=O)N2CCOCC2)CC1 (stereo not drawn) [Compound 10f, 1–(2-(2,6-Difluorophenyl)-4-oxothiazolidin-3-yl)-3–(3-fluoro-4-((6-methoxy-7-((1–(2-morpholino-2-oxoethyl)piperidin-4-yl)oxy)quinolin-4-yl)oxy)phenyl)urea] | 140 | 78 | 1900 ± 110 | 2600 ± 270 | 420 ± 34 | > 10000 | – |
| COc1cc2c(Oc3ccc(NC(=O)NN4C(=O)CSC4c4c(F)cccc4F)cc3F)ccnc2cc1OC1CCN(C(=O)COC(C)=O)CC1 (stereo not drawn) [Compound 10g, 2–(4-((4–(4-(3–(2-(2,6-Difluorophenyl)-4-oxothiazolidin-3-yl)ureido)-2-fluorophenoxy)-6-methoxyquinolin-7-yl)oxy)piperidin-1-yl)-2-oxoethyl acetate] | 180 | 110 | 6900 ± 470 | 4800 ± 440 | 590 ± 45 | – | – |
| COc1cc2c(Oc3ccc(NC(=O)NN4C(=O)CSC4c4c(F)cccc4F)cc3F)ccnc2cc1OC1CCN(C(=O)CO)CC1 (stereo not drawn) [Compound 10h, 1–(2-(2,6-Difluorophenyl)-4-oxothiazolidin-3-yl)-3–(3-fluoro-4-((7-((1–(2-hydroxyacetyl)piperidin-4-yl)oxy)-6-methoxyquinolin-4-yl)oxy)phenyl)urea] | 220 | 160 | 6500 ± 430 | – | 850 ± 73 | > 10000 | – |
| COc1cc2c(Nc3ccc(NC(=O)NN4C(=O)CSC4c4c(F)cccc4F)cc3F)ccnc2cc1OC1CCN(CC(N)=O)CC1 (stereo not drawn) [Compound 10i, 2–(4-((4-((4–(3-(2–(2,6-Difluorophenyl)-4-oxothiazolidin-3-yl)ureido)-2-fluorophenyl)amino)-6-methoxyquinolin-7-yl)oxy)piperidin-1-yl)acetamide] | – | – | > 10000 | > 10000 | – | – | – |
| CNC(=O)c1c(C)oc2cc(Oc3ncnc4cc(OC)c(OC)cc34)ccc12 [Fruquintinib, reference compound] | – | – | 1570 | 2200 ± 170 | > 10000 | – | – |
| Cn1cc(-c2cnc3ccc4ccc(CS(=O)(=O)NCc5ccccn5)cc4c(=O)c3c2)cn1 [MK-8033, 1-[3-(1-Methyl-1H-pyrazol-4-yl)-5-oxo-5H-benzo[4,5]cyclohepta[1,2-b]pyridin-7-yl]-N-(pyridin-2-ylmethyl)methanesulfonamide] | – | – | – | – | – | – | IC50 (Ron (MST1R)): 7 nM |
| CNC(=O)c1cc(Oc2ccc(NC(=O)Nc3ccc(Cl)c(C(F)(F)F)c3)c(F)c2)ccn1 [Regorafenib, reference compound] | – | – | 8490 | 8200 ± 750 | > 10000 | – | – |
